Experimental data as given in patent US7067523B2, “Use of pyrone carboxylates for controlling pests” (Sumitomo Chemical Company, Limited, priority 2002, dated 2006).

System: Blattela germanica
Test: Topical application to adult female Blattela germanica, mortality after 7 days
Format: in vivo
Settings: 1 μl of 20 μg/μl acetone solution applied to ventral thorax of adult female, 10 insects per group, triplicate
Protocol: 1 μl of a 20 μg/μl acetone solutions of each of the present compounds No. 1 and the control compound was applied onto the surface of the ventral region of the thorax of adult female Blattela germanica. These insects were kept with a feed (solid feed for rat, Oriental Yeast, Co., Ltd.) and water for 7 days. Subsequently, the insects were examined for death to obtain mortality (10 insects per group, triplicate).
In a similar manner to the Experiment example 1, using a 20 μg/μl acetone solution of each of the present compounds Nos. 2, 3, 4, 5, 6, 7, 10, 11, 13, 14, 15, 16 and 18 instead of the present compound No. 1 and the control compound, the experiment was carried out to obtain mortality of the cockroach.
In a similar manner to the Experiment example 1, using a 2.5 μg/μl acetone solution of each of the present compounds Nos. 5 and 6 instead of the present compound No. 1 and the control compound, the experiment was carried out to obtain mortality of the cockroach.

| SMILES | mortality [%] |
| --- | --- |
| CCOC(=O)c1c(O)cc(C)oc1=O [Compound No. 1, ethyl 4-hydroxy-6-methyl-2-oxo-2H-pyrane-3-carboxylate] | 100 |
| CCC(=O)c1c(O)cc(C)oc1=O [control compound, 4-hydroxy-6-methyl-3-propanoyl-2-pyrone] | 30 |
